{"source": "patent US20040266623A1", "about": "“SYNERGISTIC QUINCLORAC HERBICIDAL COMPOSITIONS” (priority 2003, published 2004)", "test_system": "dandelion", "experiment": "Greenhouse pot test, postemergent spray, visual control rating converted to percent control", "type": "in vivo", "outline": "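Plants were rated visually at 24 HAT through 21 DAT on a 1 (none) to 9 (death) scale, later expressed as percent control. Treatment was a postemergent greenhouse pot spray delivering 43.46 gallons/acre onto plants in soilless media. Two- and three-way mixtures were judged for synergy against Colby-expected values.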", "data": [{"smiles": "O=C(O)c1c(Cl)ccc2cc(Cl)cnc12", "note": "[Quinclorac, 3,7-dichloro-8-quinolinecarboxylic acid]", "values": [{"measurement": "% Control Dandelion", "setting": "Test 1, 7 DAT, 0.18 lbs/A", "result": 33.3, "unit": "%"}, {"measurement": "Control (1-9) Dandelion", "setting": "Test 1, 7 DAT, 0.18 lbs/A", "result": 3}, {"measurement": "% Control Dandelion", "setting": "Test 1, 7 DAT, 0.375 lbs/A", "result": 33.3, "unit": "%"}, {"measurement": "Control (1-9) Dandelion", "setting": "Test 1, 7 DAT, 0.375 lbs/A", "result": 3}, {"measurement": "% Control Dandelion", "setting": "Test 1, 7 DAT, 0.75 lbs/A", "result": 33.3, "unit": "%"}, {"measurement": "Control (1-9) Dandelion", "setting": "Test 1, 7 DAT, 0.75 lbs/A", "result": 3}, {"measurement": "% Control Dandelion", "setting": "Test 1, 14 DAT, 0.18 lbs/A", "result": 88.9, "unit": "%"}, {"measurement": "Control (1-9) Dandelion", "setting": "Test 1, 14 DAT, 0.18 lbs/A", "result": 8}, {"measurement": "% Control Dandelion", "setting": "Test 1, 14 DAT, 0.375 lbs/A", "result": 77.8, "unit": "%"}, {"measurement": "Control (1-9) Dandelion", "setting": "Test 1, 14 DAT, 0.375 lbs/A", "result": 7}, {"measurement": "% Control Dandelion", "setting": "Test 1, 14 DAT, 0.75 lbs/A", "result": 66.7, "unit": "%"}, {"measurement": "Control (1-9) Dandelion", "setting": "Test 1, 14 DAT, 0.75 lbs/A", "result": 6}, {"measurement": "% Control Dandelion", "setting": "Test 1, 24 HAT, 0.18 lbs/A", "result": 22.2, "unit": "%"}, {"measurement": "Control (1-9) Dandelion", "setting": "Test 1, 24 HAT, 0.18 lbs/A", "result": 2}, {"measurement": "% Control Dandelion", "setting": "Test 1, 24 HAT, 0.375 lbs/A", "result": 11.1, "unit": "%"}, {"measurement": "Control (1-9) Dandelion", "setting": "Test 1, 24 HAT, 0.375 lbs/A", "result": 1}, {"measurement": "% Control Dandelion", "setting": "Test 1, 24 HAT, 0.75 lbs/A", "result": 11.1, "unit": "%"}, {"measurement": "Control (1-9) Dandelion", "setting": "Test 1, 24 HAT, 0.75 lbs/A", "result": 1}, {"measurement": "% Control Dandelion", "setting": "Test 1, 48 HAT, 0.18 lbs/A", "result": 33.3, "unit": "%"}, {"measurement": "Control (1-9) Dandelion", "setting": "Test 1, 48 HAT, 0.18 lbs/A", "result": 3}, {"measurement": "% Control Dandelion", "setting": "Test 1, 48 HAT, 0.375 lbs/A", "result": 33.3, "unit": "%"}, {"measurement": "Control (1-9) Dandelion", "setting": "Test 1, 48 HAT, 0.375 lbs/A", "result": 3}, {"measurement": "% Control Dandelion", "setting": "Test 1, 48 HAT, 0.75 lbs/A", "result": 33.3, "unit": "%"}, {"measurement": "Control (1-9) Dandelion", "setting": "Test 1, 48 HAT, 0.75 lbs/A", "result": 3}, {"measurement": "% Control Dandelion", "setting": "Test 2, 7 DAT, 0.18 lbs/A", "result": 88.9, "unit": "%"}, {"measurement": "Control (1-9) Dandelion", "setting": "Test 2, 7 DAT, 0.18 lbs/A", "result": 8}, {"measurement": "% Control Dandelion", "setting": "Test 2, 7 DAT, 0.375 lbs/A", "result": 33.3, "unit": "%"}, {"measurement": "Control (1-9) Dandelion", "setting": "Test 2, 7 DAT, 0.375 lbs/A", "result": 3}, {"measurement": "% Control Dandelion", "setting": "Test 2, 7 DAT, 0.75 lbs/A", "result": 33.3, "unit": "%"}, {"measurement": "Control (1-9) Dandelion", "setting": "Test 2, 7 DAT, 0.75 lbs/A", "result": 3}, {"measurement": "% Control Dandelion", "setting": "Test 2, 14 DAT, 0.18 lbs/A", "result": 88.9, "unit": "%"}, {"measurement": "Control (1-9) Dandelion", "setting": "Test 2, 14 DAT, 0.18 lbs/A", "result": 8}, {"measurement": "% Control Dandelion", "setting": "Test 2, 14 DAT, 0.375 lbs/A", "result": 88.9, "unit": "%"}, {"measurement": "Control (1-9) Dandelion", "setting": "Test 2, 14 DAT, 0.375 lbs/A", "result": 8}, {"measurement": "% Control Dandelion", "setting": "Test 2, 14 DAT, 0.75 lbs/A", "result": 66.7, "unit": "%"}, {"measurement": "Control (1-9) Dandelion", "setting": "Test 2, 14 DAT, 0.75 lbs/A", "result": 6}, {"measurement": "% Control Dandelion", "setting": "Test 2, 24 HAT, 0.18 lbs/A", "result": 22.2, "unit": "%"}, {"measurement": "Control (1-9) Dandelion", "setting": "Test 2, 24 HAT, 0.18 lbs/A", "result": 2}, {"measurement": "% Control Dandelion", "setting": "Test 2, 24 HAT, 0.375 lbs/A", "result": 22.2, "unit": "%"}, {"measurement": "Control (1-9) Dandelion", "setting": "Test 2, 24 HAT, 0.375 lbs/A", "result": 2}, {"measurement": "% Control Dandelion", "setting": "Test 2, 24 HAT, 0.75 lbs/A", "result": 22.2, "unit": "%"}, {"measurement": "Control (1-9) Dandelion", "setting": "Test 2, 24 HAT, 0.75 lbs/A", "result": 2}, {"measurement": "% Control Dandelion", "setting": "Test 2, 72 HAT, 0.18 lbs/A", "result": 55.6, "unit": "%"}, {"measurement": "Control (1-9) Dandelion", "setting": "Test 2, 72 HAT, 0.18 lbs/A", "result": 5}, {"measurement": "% Control Dandelion", "setting": "Test 2, 72 HAT, 0.375 lbs/A", "result": 33.3, "unit": "%"}, {"measurement": "Control (1-9) Dandelion", "setting": "Test 2, 72 HAT, 0.375 lbs/A", "result": 3}, {"measurement": "% Control Dandelion", "setting": "Test 2, 72 HAT, 0.75 lbs/A", "result": 33.3, "unit": "%"}, {"measurement": "Control (1-9) Dandelion", "setting": "Test 2, 72 HAT, 0.75 lbs/A", "result": 3}, {"measurement": "% Control Dandelion", "setting": "Test 4, 7 DAT, 0.18 lbs/A", "result": 22.2, "unit": "%"}, {"measurement": "Control (1-9) Dandelion", "setting": "Test 4, 7 DAT, 0.18 lbs/A", "result": 2}, {"measurement": "% Control Dandelion", "setting": "Test 4, 7 DAT, 0.375 lbs/A", "result": 22.2, "unit": "%"}, {"measurement": "Control (1-9) Dandelion", "setting": "Test 4, 7 DAT, 0.375 lbs/A", "result": 2}, {"measurement": "% Control Dandelion", "setting": "Test 4, 7 DAT, 0.75 lbs/A", "result": 22.2, "unit": "%"}, {"measurement": "Control (1-9) Dandelion", "setting": "Test 4, 7 DAT, 0.75 lbs/A", "result": 2}, {"measurement": "% Control Dandelion", "setting": "Test 4, 14 DAT, 0.18 lbs/A", "result": 22.2, "unit": "%"}, {"measurement": "Control (1-9) Dandelion", "setting": "Test 4, 14 DAT, 0.18 lbs/A", "result": 2}, {"measurement": "% Control Dandelion", "setting": "Test 4, 14 DAT, 0.375 lbs/A", "result": 22.2, "unit": "%"}, {"measurement": "Control (1-9) Dandelion", "setting": "Test 4, 14 DAT, 0.375 lbs/A", "result": 2}, {"measurement": "% Control Dandelion", "setting": "Test 4, 14 DAT, 0.75 lbs/A", "result": 22.2, "unit": "%"}, {"measurement": "Control (1-9) Dandelion", "setting": "Test 4, 14 DAT, 0.75 lbs/A", "result": 2}]}]}
